This note sets out measurements from ChEMBL document CHEMBL1131515, “2-Substituted-4-methoxybenzimidazole-based PDE4 inhibitors” (Bioorg Med Chem Lett, 1998).

Where only a bound is given, the exact number is not on record here.

Series [1] concerns the target Phosphodiesterase 4 (Cavia porcellus). The series can be described thus: Inhibition of PDE4 from guinea pig macrophages.
Series [2] in a line: Inhibition of Rolipram binding to PDE4.
The species entered for series [3] is Mus musculus. Nature of the series: Inhibition of lipopolysaccharide (LPS) stimulated TNF-alpha release in mice after peroral dose. The series is classed as functional. The conditions noted are these: po.
Series [4] is described as follows: Bioavailability in mouse. The series is classed as ADME, organism-based. The conditions noted are these: in vivo.
Series [5] is filed under the species Rattus norvegicus. Nature of the series: Inhibition of streptococcal cell wall(SCW) induced arthritis in rat. The series is classed as functional.
The target in series [6] is Phosphodiesterase 4 (Cavia porcellus). The series can be described thus: Inhibition of Phosphodiesterase 4 (PDE4) from guinea pig macrophages.
A short description of series [7]: Compound was evaluated for its bioavailability in mice at a dose of 1 mg/kg. The class given is ADME, organism-based. The conditions noted are these: mouse, in vivo.
The species named for series [8] is Rattus norvegicus. The series can be described thus: Inhibition of streptococcal cell wall(SCW) induced arthritis in rat on peroral dose. The class given is functional. To be noted: po.
Series [9] can be described thus: Rapid plasma clearance of compound was determined. The class given is ADME.
Series [10] addresses Phosphodiesterase 4 (Homo sapiens, UniProt P27815+Q08499+Q07343+Q08493). Nature of the series: Inhibition of Phosphodiesterase 4 (PDE4) from guinea pig macrophages. The class given is protein assay, Cavia porcellus. The conditions noted are these: target entry is the homologue from another species.

Turning to `COc1ccc(C(=O)Nc2c(Cl)cncc2Cl)c2nc(C3CCCC3)n(C)c12`, in series [1], the IC50 was determined as 4400 nM. The Ki in [2] worked out at 10000 nM.

The molecule `COc1ccc(C(=O)Nc2c(Cl)cncc2Cl)c2[nH]c(C3CCCC3)nc12` came in with an IC50 in [1] of 100 nM. The molecule further showed a Ki in series [2] of 540 nM.

Take `COc1ccc(C(=O)Nc2c(Cl)cncc2Cl)c2c1nc(C1CCCC1)n2C`: the IC50 in series [1] was found to be 540 nM. Affinity in series [2] was put at a Ki of 340 nM.

In series [1], `COc1ccc(C(=O)Nc2c(Cl)cncc2Cl)c2[nH]c(C(C)C)nc12` came in with an IC50 of 27 nM. The molecule further showed an ED50 in series [3] of 10 mg/kg. For the same molecule, in series [2], the Ki worked out at 24 nM. Further, in series [4], the bioavailability was found to be 16%.

For the molecule `COc1ccc(C(=O)Nc2c(Cl)cncc2Cl)c2[nH]c(CCc3ccccc3)nc12`, the IC50 in [1] is recorded as 23 nM. This molecule also came in with a Ki in series [2] of 56 nM.

Regarding `COc1ccc(C(=O)Nc2c(Cl)cncc2Cl)cc1OC1CCCC1`, the Ki in series [2] turned out to be 1 nM. Also, in series [4], the bioavailability is less than 5%.

For `COCc1nc2c(OC)ccc(C(=O)Nc3c(Cl)cncc3Cl)c2[nH]1`, the ED50 in series [3] turned out to be 2 mg/kg; in series [5] it was 10 mg/kg. Moreover, in [2], affinity was put at a Ki of 25 nM. Moreover, in series [4], the bioavailability is 35%.

On to `COc1ccc(C(=O)Nc2c(Cl)cncc2Cl)c2[nH]c(Cc3ccccc3)nc12`, for which, in [1], the IC50 was determined as 25 nM. The Ki in series [2] came out at 75 nM.

Take `COc1ccc(C(=O)Nc2c(Cl)cncc2Cl)c2[nH]c(C)nc12`: the IC50 in [1] is 450 nM. For the same molecule, the affinity in series [2], expressed as Ki, was 712 nM.

Molecule `COc1ccc(C(=O)Nc2c(Cl)cncc2Cl)c2[nH]c(C3CC3)nc12` yielded an IC50 in series [1] of 2 nM. Further, the Ki in series [2] was determined as 1 nM.

`COc1ccc(C(=O)Nc2c(Cl)c[n+]([O-])cc2Cl)c2[nH]c(C(C)C)nc12`: in series [2], the inhibition constant Ki was determined as 24 nM. The molecule also registered an IC50 in series [6] of 28 nM.

`COCc1nc2c(OC)ccc(C(=O)Nc3c(Cl)c[n+]([O-])cc3Cl)c2[nH]1`: the ED50 in [3] is 7 mg/kg; in [8], 5 mg/kg. For the same molecule, the bioavailability in series [7] came out at 87%. Besides, the half-life in series [9] was 2.5 h. The molecule further had a Ki in series [2] of 45 nM. This molecule also gave a concentration for half-maximal inhibition (IC50) in series [6] of 45 nM.

`OCCN(CCO)c1nc(N2CCCCC2)c2nc(N(CCO)CCO)nc(N3CCCCC3)c2n1` [DIPYRIDAMOLE]: in series [10], the IC50 was determined as 500 nM.
